Like-named read-outs stand apart in the source and are kept apart here.

The test system of experiment [1] is Linseed (Linum usitatissimum). Nature of the experiment: Post-emergence foliar spray, herbicidal/growth regulant response, linseed. The format is in vivo. The following applies: 168 h, foliar spray 11.2 kg/ha, 7 days, 0=no effect, 100=complete kill, read-out: herbicidal or growth regulant response index. The method, then:
(§1) Seeds of the plant species listed below were sown in anodised aluminium pans, 19 cm long×9.5 cm wide×5 cm deep, containing John Innes I potting compost. They were then watered and placed in a controlled environment room (22° C.; 65-85% relative humidity; 14 hours per day artificial illumination at 13,000 lux). Fourteen days after sowing, the seedlings received a foliar spray of a compound listed below, formulated as a solution in 1:1 by volume aqueous acetone. The concentration of active ingredient and volume of application were adjusted so as to be equivalent to a rate of 11.2 kg/ha in 450 liters per hectare. After seven days growth in the controlled environment room, the plants were visually assessed for any herbicidal or growth regulant response. All differences from the untreated control were scored according to an index where 0=no effect and 100=complete kill.
(§2) The product of Example 95 was tested according to the procedure of Examples 49-55.

In experiment [2] the test system is Sugarbeet (Beta vulgaris). The experiment is described as follows: Post-emergence foliar spray, herbicidal/growth regulant response, sugarbeet. In kind it is in vivo. The following applies: 168 h, foliar spray 11.2 kg/ha, 7 days, 0=no effect, 100=complete kill, read-out: herbicidal or growth regulant response index. The method, then:
as §1, §2

Experiment [3] concerns Peas (Pisum sativum). The experiment is described as follows: Soil incorporation (attaclay/sand dust), growth regulatory or herbicidal effects, peas. The format is in vivo. The following applies: Lathyrus oleraceus, 504 h, soil incorporation 130 ppm, 21 days, 0=no effect, 100=complete kill/suppression, read-out: growth regulatory or herbicidal effect score. The text has this: (§3) The compounds listed below were each formulated as an attaclay/sand dust and incorporated into John Innes I potting compost at a rate equivalent to 26 parts per million weight/volume of active ingredient to soil and placed in anodised aluminium pans, 19 cm long×9.5 cm wide×5.0 cm deep. This rate is approximately equivalent to a soil surface application of 11.2 kg active ingredient/hectare cultivated to a depth of 5 cm. Seeds of the species listed below were sown in the treated soil, watered and placed in a controlled environment room (22° C.; 65-85% relative humidity; 14 hours per day artificial illumination at 13,000 lux) for 21 days. The plants were then visually assessed for any growth regulatory or herbicidal effects. All differences from an untreated control were scored on a scale from 0-100, where 0 signifies no effect and 100 signifies complete kill.
(§4) The compounds listed below were tested according to the procedure of Examples 56-60 but at 130 parts per million weight/volume of active ingredient to soil. This rate is approximately equivalent to a soil surface application of 56 kg active ingredient per hectare cultivated to a depth of 5 cm.
(§5) The product of Example 95 was tested according to the procedure of Examples 56-60 but at 130 and 26 parts per million weight/volume. The results were as follows:
(§6) N-(2-oxopropyl)-2'-chloro-6'-methyl-methanesulphonanilide, formulated as an attaclay/sand dust, was incorporated in John Innes I potting compost at a rate equivalent to 130 parts per million weight/volume of active ingredient to soil and placed in anodised aluminium pans, 19 cm long×9.5 cm wide×5.0 cm deep. These rates are approximately equivalent to a soil surface application of 56 kg active ingredient per hectare cultivated to a depth of 5 cm. Seeds of Peas, Mustard, Linseed, Maize, Oats and Ryegrass were sown in the treated soil, watered and placed in a controlled environment room (22° C.; 65-85% relative humidity; 14 hours artificial illumination at 13000 lux) for 21 days.
(§7) The plants were then visually assessed for any growth regulatory or herbicidal effects. All differences from an untreated control were scored on a scale from 0-100, where 0 signifies no effect and 100 signifies complete suppression.

Experiment [4] has as its system Peas (Pisum sativum). Nature of the experiment: Post-emergence foliar spray, herbicidal/growth regulant response, peas. The format is in vivo. The note with it: Lathyrus oleraceus, 168 h, foliar spray 11.2 kg/ha, 7 days, 0=no effect, 100=complete kill, read-out: herbicidal or growth regulant response index. How it is done: as §1, §2
For experiment [5], the system named is Oats (Avena sativa). The experiment is described as follows: Soil incorporation (attaclay/sand dust), growth regulatory or herbicidal effects, oats. The format is in vivo. The note with it: 504 h, soil incorporation 130 ppm, 21 days, 0=no effect, 100=complete kill/suppression, read-out: growth regulatory or herbicidal effect score.
Text: as §3, §4, §5, §6, §7

The subject of experiment [6] is Maize (Zea mays). The experiment is described as follows: Soil incorporation (attaclay/sand dust), growth regulatory or herbicidal effects, maize. The format is in vivo. The note with it: 504 h, soil incorporation 130 ppm, 21 days, 0=no effect, 100=complete kill/suppression, read-out: growth regulatory or herbicidal effect score.
Text: as §3, §4, §5, §6, §7

The subject of experiment [7] is Mustard (Sinapis alba). Nature of the experiment: Post-emergence foliar spray, herbicidal/growth regulant response, mustard. The note with it: 168 h, foliar spray 11.2 kg/ha, 7 days, 0=no effect, 100=complete kill, read-out: herbicidal or growth regulant response index. In kind it is in vivo. How it is done: as §1, §2
The subject of experiment [8] is Pythium ultimum. The experiment is described as follows: Fungal growth on the surface of soil infected with damping-off disease organism. The note with it: 6 days, 25° C., 0-8 scale. The format is in vivo. How it is done:
(§8) A one week old maize meal/sand culture of the damping-off disease organism Pythium ultimum was thoroughly mixed by hand with clean sterile John Innes No. 1 potting compost in the ratio of 3 kg culture to 12 liters of soil. The infected soil was then left for approximately 18 hours before use. Each of the compounds listed below was ground together with a wetting agent, Tween 20 (1% of final volume), until a solution or fine suspension was produced which was then diluted with distilled water to give 160 ml of solution containing 1500, 500, 150 or 50 ppm active ingredient. 15 ml aliquots of this solution were added to 75 g portions of the soil infected with Pythium ultimum which were contained in small plastic cartons, 60 mm diameter×55 mm high. Fifteen cabbage seeds, variety Flower of Spring, were placed in a circular depression in the treated infected soil, recovered, and the whole sealed with a plastic cap. The cartons were then placed in a constant temperature room at 25° C.±1° C. Four replications per treatment were made with one additional treatment where seeds were sown in soil which was chemically treated only, i.e. there was no infection. This latter treatment was included to measure the direct effect of the chemical on the germination of the seed. After six days the cartons were removed from the controlled temperature chamber and assessed for degree of fungal growth on the soil surface and percentage of seedling emergence. The results of both these assessments are expressed in a 0-8 scale as follows:
(§9) One week old maize meal/sand culture of the damping-off disease organism Pythium ultimum was thoroughly mixed by hand with clean sterile John Innes No. 1 potting compost in the ratio of 3 kg culture to 12 liters of soil. This infected soil was then left for approximately 18 hours before use. The compounds listed in the Table below were each ground with the wetting agent Tween 20 (1% of final volume), until a solution or fine suspension was produced, which was then diluted with distilled water to give 160 ml of solution containing 1500 or 500 parts per million (ppm) active ingredient. 15 ml aliquots of this solution were added to 75 g portions of the soil infected with Pythium ultimum which were contained in small plastic cartons, 60 mm diameter×55 mm high.
(§10) Fifteen cabbage seeds, variety Flower of Spring, were placed in a circular depression in the treated infected soil, recovered, and the whole sealed with a plastic cap. The cartons were then placed in a constant temperature room at 25° C.±1° C. Four replications per treatment were made, with one additional treatment where seeds were sown in soil which was chemically treated only, i.e. there was no infection. This latter treatment was included to measure the direct effect of the chemical on the germination of the seed.
(§11) After six days, the cartons were removed from the controlled temperature chamber and assessed for degree of fungal growth on the soil surface and percentage of seedling emergence. The results of both these assessments are expressed in a 0-8 scale as follows:
(§12) N-(2-oxopropyl)-3',4'-dimethyl-methanesulphonanilide was tested at a dose rate of 300 ppm in the test described in Examples 233 and 234. It gave a mycelial control score of 0 and a germination score of 3 whereas the untreated samples gave a score of 0 for both.

The test system of experiment [9] is Pythium ultimum. Nature of the experiment: Cabbage seedling emergence in soil infected with Pythium ultimum. In kind it is in vivo, Pythium ultimum (on cabbage, variety Flower of Spring). The note with it: 6 days, 25° C., 0-8 scale. How it is done:
as §8, §9, §10, §11, §12

The test system of experiment [10] is Ryegrass (Lolium perenne). Nature of the experiment: Soil incorporation (attaclay/sand dust), growth regulatory or herbicidal effects, ryegrass. In kind it is in vivo. The following applies: 504 h, soil incorporation 130 ppm, 21 days, 0=no effect, 100=complete kill/suppression, read-out: growth regulatory or herbicidal effect score.
Text: as §3, §4, §5, §6, §7

Experiment [11] has as its system Oat (Avena sativa). The experiment is described as follows: Post-emergence foliar spray, herbicidal/growth regulant response, oat. The format is in vivo. The note with it: 168 h, foliar spray 11.2 kg/ha, 7 days, 0=no effect, 100=complete kill, read-out: herbicidal or growth regulant response index. The method, then:
as §1, §2

In experiment [12] the test system is Mustard (Sinapis alba). Nature of the experiment: Soil incorporation (attaclay/sand dust), growth regulatory or herbicidal effects, mustard. The following applies: 504 h, soil incorporation 130 ppm, 21 days, 0=no effect, 100=complete kill/suppression, read-out: growth regulatory or herbicidal effect score. The format is in vivo.
Text: as §3, §4, §5, §6, §7

Experiment [13] deals with Ryegrass (Lolium perenne). Nature of the experiment: Post-emergence foliar spray, herbicidal/growth regulant response, ryegrass. The format is in vivo. The following applies: 168 h, foliar spray 11.2 kg/ha, 7 days, 0=no effect, 100=complete kill, read-out: herbicidal or growth regulant response index. The method, then:
as §1, §2

Experiment [14] deals with Linseed (Linum usitatissimum). The experiment is described as follows: Soil incorporation (attaclay/sand dust), growth regulatory or herbicidal effects, linseed. The format is in vivo. The following applies: 504 h, soil incorporation 130 ppm, 21 days, 0=no effect, 100=complete kill/suppression, read-out: growth regulatory or herbicidal effect score.
Text: as §3, §4, §5, §6, §7

The test system of experiment [15] is potato blight Phytophthora infestans. In kind it is in vivo. The following applies: 5 days, controls less than 5%.
The subject of experiment [16] is barley powdery mildew Erysiphe graminis. Nature of the experiment: Barley powdery mildew control on barley plants. The note with it: 2000 ppm; soil and leaves; 10 days; controls less than 5%. In kind it is in vivo.
Experiment [17] relates to potato blight, Phytophthora infestans. The format is in vivo. The note with it: 5 days, controls less than 5%.

For `CCOC(=O)C(C)N(c1c(C)cccc1C)S(=O)(=O)CC` (stereo not shown) [Example 26, N-(1-[ethoxycarbonyl]ethyl)-2',6'-dimethyl-ethanesulphonanilide], the pest or weed control at 11200 g/ha in experiment [1] is 100%; in [4] it was 5%; in [7], 100%; in experiment [13], 40%. Also, the plant injury at 11200 g/ha in experiment [2] worked out at 90%; in [11] it was 40%. The pest or weed control at 130 µg/mL in [3], in experiment [10], in experiment [12] and in experiment [14] was 100% in each case. Also, the plant injury at 130 µg/mL in experiment [5] and in [6] was 100% throughout. The “Mycelial Control Score” value in [8] (30 ppm), in experiment [8] (100 ppm) and in experiment [8] (300 ppm) was 0 (<20% inhibition) in each case. In addition, the “Germination Score” value in [9] (30 ppm) is reported as 3 (45-54% inhibition); in [9] (100 ppm), 4 (55-64% inhibition); in [9] (300 ppm), 4 (55-64% inhibition).
With `CCc1ccccc1N(C(C)C(=O)N1CCOCC1)S(C)(=O)=O` (stereo not shown) [Example 41], in experiment [15] (2000 ppm), the “% Control, potato blight” value was determined as 93%.
With `Cc1cccc(C)c1N(CC#N)S(C)(=O)=O` [Example 46], the pest or weed control at 130 µg/mL in experiment [3] is 20%; in experiment [10], 80%; in experiment [12], 100%; in experiment [14], 90%. Moreover, the plant injury at 130 µg/mL amounted to 70% in experiment [5] and 30% in [6]. For the same compound, in [15] (2000 ppm), the “% Control, potato blight” value amounted to 56%.
Turning to `CCCS(=O)(=O)N(CC#N)c1ccc(Cl)c(Cl)c1` [Example 132], the “% Control, potato blight” value in experiment [15] (500 ppm) stood at 59%; in [15] (2000 ppm), 76%.
In the case of `Cc1cccc(C)c1N(CCCC#N)S(C)(=O)=O` [Example 146], the “% Control, barley powdery mildew” value in [16] is 92%.
`CS(=O)(=O)N(CCCC#N)c1ccc(Cl)c(Cl)c1` [Example 147]: the “% Control, barley powdery mildew” value in experiment [16] stood at 96%.
`Cc1ccc(N(CCCC#N)S(C)(=O)=O)cc1C` [Example 148]: the “% Control, barley powdery mildew” value in experiment [16] amounted to 89%.
Turning to `CC(=O)CN(c1c(C)cccc1C)S(C)(=O)=O` [Example 211, N-2-oxopropyl-2',6'-dimethyl-methanesulphonanilide], the “% Control, potato blight” value in [17] (125 ppm) amounted to 90%; in experiment [17] (500 ppm), 94%; in [17] (2,000 ppm), 99%.
On to `COC(C)(CN(c1c(C)cccc1C)S(C)(=O)=O)OC` [Example 224, N-(2,2-dimethoxypropyl)-2',6'-dimethyl-methanesulphonanilide], for which the “% Control, potato blight” value in experiment [17] (500 ppm) stood at 55%; in experiment [17] (2,000 ppm), 98%.
In the case of `Cc1cccc(C)c1N(CC1(C)OCCO1)S(C)(=O)=O` [Example 231, N-[(2-methyl-1,3-dioxolan-2-yl)methyl]-2',6'-dimethylmethanesulphonanilide], the “% Control, potato blight” value in experiment [17] (2,000 ppm) is 98%.

Source of the values: patent publication US4309559A, “Sulphonamides useful as pesticides” (FBC Limited, priority 1977, dated 1982).
